Results taken from paper PMC10107436, “Persicamidines—Unprecedented Sesquarterpenoids with Potent Antiviral Bioactivity against Coronaviruses” (Angewandte Chemie (International Ed. in English), 2023).

Key:
SARS-CoV-2 = assay: microbe, parasite or virus in culture; format: cell-based; conditions: for IC50: Severe acute respiratory syndrome coronavirus 2, SARS-CoV-2 in A549_ACE2_TMPRSS2 cells, fluorescence, mean of three biological replicates; for selectivity index (CC50/IC50): CC50 in A549_ACE2_TMPRSS2 cells over IC50
hCoV-229E = assay: microbe, parasite or virus in culture; format: cell-based; conditions: Human coronavirus 229E
in vitro = conditions: human

CO[C@@H]1C[C@H](O[C@H]2C[C@](C)(CO)[C@@H]3CC[C@@]4(C)[C@@H]5CC[C@@H]6[C@H](CC(=O)[C@]7(C)C8=COC(NC(C)C)=N[C@]8(C)[C@@H](O)[C@@H]8O[C@@]687)[C@@]5(C)CC[C@@H]4[C@@]3(C)[C@@H]2O)O[C@H](C)[C@H]1O [Persicamidine B, persicamidine B] showed an IC50 (SARS-CoV-2) of 230 nM and an IC50 (hCoV-229E) of 3.6 nM.

For CCC(CC)COC(=O)[C@H](C)N[P@](=O)(OC[C@H]1O[C@@](C#N)(c2ccc3c(N)ncnn23)[C@H](O)[C@@H]1O)Oc1ccccc1 [Remdesivir, reference compound], the viral inhibition (SARS-CoV-2; SARS-CoV-2, antiviral compound control at 1 µM) was “full viral inhibition”, the IC50 (SARS-CoV-2) was 30 nM and the CC50 (in vitro) was greater than 1000 nM. For the same compound, the IC50 (hCoV-229E) was 3.5 nM.

Compound CC[C@@H](C)NC1=N[C@@]2(C)C(=CO1)[C@@]1(C)C(=O)C[C@H]3[C@@H](CC[C@@H]4[C@]3(C)CC[C@H]3[C@@]4(C)CC[C@H]4[C@@](C)(CO)C[C@H](O[C@H]5C[C@@H](OC)[C@H](O)[C@@H](C)O5)[C@@H](O)[C@@]43C)[C@@]13O[C@H]3[C@@H]2O [Persicamidine A, persicamidine A] has an IC50 (SARS-CoV-2) of 130 nM and an IC50 (hCoV-229E) of 3.8 nM.

With CO[C@@H]1C[C@H](O[C@H]2C[C@](C)(CO)[C@@H]3CC[C@@]4(C)[C@@H]5CC[C@@H]6[C@H](CC(=O)[C@]7(C)C8=COC(N[C@H](C)C(C)C)=N[C@]8(C)[C@@H](O)[C@@H]8O[C@@]687)[C@@]5(C)CC[C@@H]4[C@@]3(C)[C@@H]2O)O[C@H](C)[C@H]1O [Persicamidine C, persicamidine C] the IC50 (SARS-CoV-2) was 74 nM, the “selectivity index (CC50/IC50)” value (SARS-CoV-2) was greater than 50 and the IC50 (hCoV-229E) was 6.6 nM.

With CO[C@@H]1C[C@H](O[C@H]2C[C@](C)(CO)[C@@H]3CC[C@@]4(C)[C@@H]5CC[C@@H]6[C@H](CC(=O)[C@]7(C)C8=COC(N[C@H](C)C(C)(C)C)=N[C@]8(C)[C@@H](O)[C@@H]8O[C@@]687)[C@@]5(C)CC[C@@H]4[C@@]3(C)[C@@H]2O)O[C@H](C)[C@H]1O [Persicamidine D, persicamidine D] the IC50 (SARS-CoV-2) was 84 nM, the “selectivity index (CC50/IC50)” value (SARS-CoV-2) was greater than 80 and the IC50 (hCoV-229E) was 5.2 nM.

Compound CCNC1=N[C@@]2(C)C(=CO1)[C@@]1(C)C(=O)C[C@H]3[C@@H](CC[C@@H]4[C@]3(C)CC[C@H]3[C@@]4(C)CC[C@H]4[C@@](C)(CO)C[C@H](O[C@H]5C[C@@H](OC)[C@H](O)[C@@H](C)O5)[C@@H](O)[C@@]43C)[C@@]13O[C@H]3[C@@H]2O [Persicamidine E, persicamidine E] has an IC50 (SARS-CoV-2) of 250 nM and an IC50 (hCoV-229E) of 5.3 nM.
